Test results reported in patent US7517893B2, “Bichalcophenes and their prodrugs as antiprotozoal agents” (The University of North Carolina at Chapel Hill, priority 2005, dated 2009).
“And” between values parts separate entries of the source, which are not always exact repeats. Equal values may be shown once. Where a name gives a salt, the structure may show the parent alone. Read-outs that look alike come from different tables or passages of the source.

Experiments:
[1] = test system: STIB 900 strain of Trypanosoma brucei rhodesiense; assay: In vivo activity against T. b. r. STIB 900 in a mouse model; conditions: for Survival: average days of survival, mice, untreated controls die between day 7 and 8; for Survival / Cures: days 3-6 post-infection; for Cures: number of mice that survive and are parasite free for 60 days, groups of four mice; for in vivo activity against T. b. r. (in words) / cure rate compared with pentamidine and furamidine (in words): murine model; for cure rate compared with pentamidine and furamidine (in words): T. b. r. STIB 900
Experimental: The activities of compounds 6, 8, 14, 16 and 17, against the STIB 900 strain of Trypanosoma brucei rhodesiense (T. b. r.) in a mouse model are shown in Table 2. These values are compared to those of pentamidine and furamidine. Groups of four mice were infected intraperitoneally with […] bloodstream forms of T. b. r. STIB 900 which originates from a patient in Tanzania. On days 3, 4, 5, and 6 post-infection the experimental groups were treated with the drugs either by the intraperitoneal or for prodrugs by the oral route. Usually the highest tolerated dose was used which was determined in a pretoxicological experiment. Parasitemia of the mice was checked daily up to day 14 post-infection and thereafter 2 times per week up to day 60. One group of mice was not treated and acted as control. For relapsing mice, the day of death was recorded and the survival time determined.

[2] = test system: Trypanosoma brucei rhodesiense, Plasmodium falciparum, Leishmania donovani; assay: In vitro antiprotozoal activities, overall statement on prodrugs; type: cell-based; conditions: absence of the enzymes needed for bioconversion to the active diamidines
Experimental: In vitro antiprotozoal activities were measured following established protocols. See Ismail, M. A., et al., J. Med. Chem., 46, 4761-4769 (2003); Stephens, C. E., et al., Bioorg. Med. Chem. Lett., 13, 2065-2069 (2003) (in vitro assay against Leishmania donovani). The activities of compounds 8, 14, 16, 17, 19, 22, 26a, 26b, 29a, 29b, and 33, 39, and 45 against Trypanosoma brucei riodesiense (T. b. r.), Plasmodium falciparum (P. f.), Leishmania donovani (L. d.), and L-6 rat mycoblast cells (as an assay for cell toxicity) are shown in Table 1. These values are compared to those of pentamidine and furamidine.

[3] = test system: L-6 rat mycoblast cells; assay: Cell toxicity assay in L-6 rat mycoblast cells; type: cell-based; conditions: assay for cell toxicity, read-out: L6 Rat Mycoblast Cells IC50
Experimental: (§1) In vitro antiprotozoal activities were measured following established protocols. […] E., et al., Bioorg.

[4] = test system: Plasmodium falciparum; assay: In vitro antiprotozoal activity against P. f.; type: cell-based
Experimental: as §1

[5] = test system: polyA.polyT; assay: DNA binding study: increase in thermal melting (ΔTm) of polyA.polyT; conditions: increase in thermal melting of polyA.polyT in the presence of compound
Experimental: DNA binding studies with polyA.polyT were carried out using established protocols. See Wilson, W. D., et al., Biochemistry, 32, 4098-4104 (1993).

[6] = test system: Trypanosoma brucei rhodesiense; assay: In vitro antiprotozoal activity against T. b. r.; type: cell-based
Experimental: as §1

[7] = test system: Leishmania donovani; assay: In vitro antiprotozoal activity against L. d.; type: cell-based; conditions: read-out: L.d. C50
Experimental: as §1

[8] = Trypanosoma brucei, RHODESIENSE

| melting point [°C] | Structure (SMILES) | IC50 [3] [µM] | IC50 ([4]; Plasmodium falciparum) [µM] | IC50 [6, 8] [µM] | IC50 [7] [µM] | further results |
| --- | --- | --- | --- | --- | --- | --- |
| > 300 | N=C(N)c1ccc(-c2ccc(-c3ccc(-c4ccc(C(=N)N)cn4)o3)o2)nc1 (as salt: salt) [Compound 22, 5,5′-Bis-(5-amidino-2-pyridyl)-2,2′-bifuran] |  |  |  |  |  |
|  | N=C(NO)c1ccc(-c2ccc(-c3ccc(C(=N)NO)o3)o2)cc1 [Compound 6, N-Hydroxy-5′-[4-(N-hydroxyamidino)-phenyl]-2,2′-bifuran-5-carboxamidine] |  |  |  |  | Survival ([1]; po, 75 mg/kg): 20 days; Cures ([1]; po, 75 mg/kg): 0/4; in vitro activity (in words) [2]: poor in vitro activity |
|  | N=C(N)c1ccc(-c2ccc(-c3ccc(C(=N)N)o3)o2)cc1 [Compound 8, 5′-(4-Amidinophenyl)-2,2′-bifuran-5-carboxamidine] | 37.8 | 0.0415 |  |  | Survival ([1]; ip, 20 mg/kg): >45.5 days; in vivo activity against T. b. r. (in words) [1]: good in vivo activity; cure rate compared with pentamidine and furamidine (in words) [1]: better cure rates than pentamidine and furamidine; Cures ([1]; ip, 20 mg/kg): 2/4; Δ Tm [5]: 10.8 °C |
| 248 to 250 | N=C(NO)c1ccc(-c2ccc(-c3ccc(C(=N)NO)o3)o2)nc1 [Compound 13, N-Hydroxy-6-[5′-(N-hydroxyamidino)-2,2′-bifuran-5-yl]-nicotinamidine] |  |  |  |  |  |
|  | CC(=O)O.N=C(N)c1ccc(-c2ccc(-c3ccc(C(=N)N)o3)o2)nc1 [Compound 14, 6-(5′-Amidino-2,2′-bifuran-5-yl)-nicotinamidine acetate salt] | 26.9 |  |  |  | Survival ([1]; ip, 10 mg/kg): >51.25 days; in vivo activity against T. b. r. (in words) [1]: good in vivo activity; cure rate compared with pentamidine and furamidine (in words) [1]: better cure rates than pentamidine and furamidine; Cures ([1]; ip, 10 mg/kg, acetate salt, 10 mg/kg): three mice out of four and 3/4; Δ Tm [5]: 7.1 °C |
|  | N/C(=N\O)c1ccc(-c2ccc(-c3ccc(-c4ccc(/C(N)=N\O)cc4)o3)o2)cc1 [Compound 16, 5,5′-bis-(4-N-Hydroxybenzamidine)-2,2′-bifuran] | > 182 | 2.96 | 8.7 |  | Survival ([1]; po, 100 mg/kg): 5.5 days; Cures ([1]; po, 100 mg/kg): 0/4; in vitro activity (in words) [2]: poor in vitro activity |
|  | Cl.N=C(N)c1ccc(-c2ccc(-c3ccc(-c4ccc(C(=N)N)cc4)o3)o2)cc1 [Compound 17, 5,5′-bis-(4-Amidinophenyl)-2,2′-bifuran hydrochloride salt] | 10.7 | ≤ 0.022 | 0.126 | 1 | IC50 ([4]; hydrochloride salt): 0.02 µM; Survival ([1]; ip, 10 mg/kg): 24 days; Cures ([1]; ip, 10 mg/kg): 0/4; Δ Tm [5]: 23.6 °C |
|  | CONC(=N)c1ccc(-c2ccc(-c3ccc(-c4ccc(C(=N)NOC)cc4)o3)o2)cc1 [Compound 19, 5,5′-Bis-[4-(N-methoxyamidino)phenyl]-2,2′-bifuran] | > 133 | > 7.4 | 36 |  | in vitro activity (in words) [2]: poor in vitro activity |
|  | N=C(N)c1ccc(-c2ccc(-c3ccc(-c4ccc(C(=N)N)cn4)o3)o2)nc1 [Compound 22, 5,5′-Bis-(5-amidino-2-pyridyl)-2,2′-bifuran] | 5.1 | 0.029 | 0.07 | > 100 |  |
| > 300 | N=C(N)c1ccc(-c2ccc(-c3ccc(-c4ccc(C(=N)N)cc4)s3)s2)cc1 [Compound 26a, 5,5′-Bis-(4-amidinophenyl)-2,2′-bithiophene] | 89.4 | ≤ 0.022 | ≤ 0.026 |  | IC50 [4]: 0.022 µM; IC50 [6]: 0.015 µM |
| > 300 | N=C(N)c1ccnc(-c2ccc(-c3ccc(-c4cc(C(=N)N)ccn4)s3)s2)c1 [Compound 26b, 5,5′-Bis-(4-amidino-2-pyridyl)-2,2′-bithiophene] | > 159 | 0.034 | 0.036 | > 50 |  |
|  | N=C(N)c1ccc2nc(-c3ccc(-c4ccc(C(=N)N)o4)o3)[nH]c2c1 [Compound 45] | 41.8 |  |  |  | Δ Tm [5]: 23.2 °C |
|  | N=C(N)c1ccc(OCCCCCOc2ccc(C(=N)N)cc2)cc1 [Pentamidine, reference compound] |  |  |  | 2 | Survival ([1]; ip, 20 mg/kg): >42.75 days; Cures ([1]; ip, 20 mg/kg): 0/4 |

| Structure (SMILES) | melting point [°C] | IC50 [3] [µM] | IC50 ([4]; Plasmodium falciparum) [µM] | IC50 [6, 8] [µM] | IC50 [7] [µM] | further results |
| --- | --- | --- | --- | --- | --- | --- |
| N=C(N)c1ccc(-c2ccc(-c3ccc(-c4ccc(C(=N)N)cc4)[se]3)[se]2)cc1 [Compound 29a, 5,5′-Bis-(4-amidinophenyl)-2,2′-biselenophene] | > 300 | 13.4 | ≤ 0.022 | ≤ 0.026 |  | IC50 [4]: 0.014 µM; IC50 [6]: 0.026 µM |
| N=C(N)c1ccnc(-c2ccc(-c3ccc(-c4cc(C(=N)N)ccn4)[se]3)[se]2)c1 [Compound 29b, 5,5′-Bis-(4-amidino-2-pyridyl)-2,2′-biselenophene] | > 300 | > 144 | 0.076 | 0.153 | 19.8 |  |
